In brackets after ≈: the same amount, converted by molar mass.
Columns and labels:
[1] = test system: Moloney murine sarcoma virus (MSV); test: MSV infection in newborn NMRI mice, intraperitoneal administration; format: in vivo; details: for Mean day of animal death / Mean day of tumor initiation: NMRI mice; for antiretroviral activity in vivo (in words): dose of 50 mg/kg i.p.
Procedure: Two gram newborn NMRI mice were injected intramuscularly in the left hind leg with 50 μl of 250-fold diluted stock preparation of Moloney murine sarcoma virus. […] Another group of mice (20 animals) was administered RPMI-1640 medium as placebo. All compounds were solubilized in RPMI-1640 medium. The mice were observed daily for 20 days and the day of tumor initiation and the day of animal death was recorded for each animal. Statistical analyses were performed by calculating the standard deviation.

C3H/3T3 cells = test: Microscopic alteration of C3H/3T3 cell culture morphology; format: cell-based, murine; details: concentration that results in a microscopic alteration of C3H/3T3 cell culture morphology
MT-4 cells = test: MT-4 cell viability (cytotoxicity); format: cell-based, human; details: concentration reducing MT-4 cell viability by 50%
Procedure: The activity of the compounds against HIV-1 and HIV-2 induced cytopathicity was examined in human lymphocyte MT-4 cells. […]. The infected cell cultures were then incubated at 37° C. for 5 days in a humidified CO2-controlled incubator. Then, the cytopathicity of the virus was examined by determination of MT-4 cell viability by trypan blue dye staining. The results are summarized in Table 1 in comparison with the data on the prototype compounds.

HIV-1 = HIV-1 induced cytopathicity in MT-4 cells; format: cell-based, human immunodeficiency virus type 1; details: MT-4 cells; concentration inhibiting HIV-induced cytopathicity by 50%
Procedure: (§1) The activity of the compounds against HIV-1 and HIV-2 induced cytopathicity was examined in human lymphocyte MT-4 cells. […] The infected cell cultures were then incubated at 37° C. for 5 days in a humidified CO2-controlled incubator. Then, the cytopathicity of the virus was examined by determination of MT-4 cell viability by trypan blue dye staining.

[2] = test system: Moloney murine sarcoma virus (MSV); test: MSV-induced transformation of C3H/3T3 cells; format: cell-based; details: concentration inhibiting MSV-induced cell transformation by 50%
Procedure: The cells were seeded in 1-ml-wells of a 48-well microtiter plate and exposed to 80 PFU (plaque forming units) for 60-90 minutes. Then, the virus was removed and culture medium containing appropriate concentrations of the test compounds were added (1 ml per well). At day 6 post infection, MSV-induced transformation of the cell culture was examined microscopically.

HIV-2 = HIV-2 induced cytopathicity in MT-4 cells; format: cell-based, human immunodeficiency virus type 2; details: MT-4 cells; concentration inhibiting HIV-induced cytopathicity by 50%
Procedure: as §1

retrovirus replication = test: Anti-retrovirus activity in vitro (conclusions on HIV and MSV tests); format: cell-based
herpes viruses = details: racemic mixtures, prior art; cited from earlier work

| Structure (SMILES) | percentage of MSV-infected mice still alive at day 20 post infection ([1]; 10 mg/kg single dose i.p.) | Mean day of tumor initiation ([1]; 10 mg/kg single dose i.p.) [days] | Mean day of tumor initiation ([1]; 20 mg/kg single dose i.p.) [days] | percentage of MSV-infected mice still alive at day 20 post infection ([1]; 50 mg/kg single dose i.p.) | percentage of MSV-infected mice without tumor at day 20 post infection ([1]; 50 mg/kg single dose i.p.) | Mean day of tumor initiation ([1]; 50 mg/kg single dose i.p.) [days] | MIC (C3H/3T3 cells) [µg/mL] | CC50 (MT-4 cells) [µg/mL] | EC50 HIV-1 (HIV-1) [µg/mL] | EC50 MSV [2] [µg/mL] | EC50 HIV-2 (HIV-2) [µg/mL] | other results |
| --- | --- | --- | --- | --- | --- | --- | --- | --- | --- | --- | --- | --- |
| Nc1ncnc2c1ncn2CCOCP(=O)(O)O [PMEA] | (43%) | 9.8 ± 1.9 | 10.6 ± 2.0 | (90%) | (90%) | 9.0 | >100 | 67 (≈ 245 µM) |  |  |  | percentage of MSV-infected mice without tumor at day 20 post infection ([1]; 10 mg/kg single dose i.p.): (24%); Mean day of animal death ([1]; 10 mg/kg single dose i.p.): 14.2 ± 2.5 days; percentage of MSV-infected mice still alive at day 20 post infection ([1]; 20 mg/kg single dose i.p.): (66%); percentage of MSV-infected mice without tumor at day 20 post infection ([1]; 20 mg/kg single dose i.p.): (44%); Mean day of animal death ([1]; 20 mg/kg single dose i.p.): 14.7 ± 1.8 days; Mean day of animal death ([1]; 50 mg/kg single dose i.p.): 16.0 days |
| Nc1nc(N)c2ncn(C[C@@H](CF)OCP(=O)(O)O)c2n1 [(S)-FPMPDAP] | (33%) | 8.5 ± 2.6 |  | (67%) | (17%) | 11.0 ± 2.1 | >100 | >100 | 4.8 (≈ 15 µM) | 1.7 (≈ 5.31 µM) | 3.3 (≈ 10.3 µM) | Mean day of tumor initiation ([1]; 25 mg/kg single dose i.p.): 8.3 ± 1.8 days |
| C[C@@H](Cn1cnc2c(N)ncnc21)OCP(=O)(O)O [(S)-PMPA, 9-(S)-(2-Phosphonomethoxypropyl)adenine] |  | 4.7 ± 0.95 | 4.5 ± 0.71 |  |  | 5.8 ± 0.63 | >100 | >100 | 78 (≈ 272 µM) | 120 (≈ 418 µM) | 63 (≈ 219 µM) | antiretroviral activity in vivo (in words) [1]: no marked antiretroviral activity in vivo; antiretroviral activity in vitro (in words) (retrovirus replication): devoid of marked antiretroviral activity |
| C[C@H](Cn1cnc2c(N)ncnc21)OCP(=O)(O)O [PMPA] |  |  |  |  |  |  |  |  |  |  |  | antiherpetic effect (in words) (herpes viruses): devoid of any appreciable antiherpetic effect |
| Nc1nc(N)c2ncn(C[C@H](CF)OCP(=O)(O)O)c2n1 [(R)-FPMPDAP, reference compound] |  | 5.6 ± 1.0 |  | (10%) |  | 7.75 ± 1.3 | >100 | >100 | 1.4 (≈ 4.37 µM) | 1.7 (≈ 5.31 µM) | 1.5 (≈ 4.68 µM) | percentage of MSV-infected mice still alive at day 20 post infection ([1]; 25 mg/kg single dose i.p.): (15%); Mean day of tumor initiation ([1]; 25 mg/kg single dose i.p.): 7.7 ± 1.9 days |
| C[C@H](Cn1cnc2c(=O)[nH]c(N)nc21)OCP(=O)(O)O [(R)-PMPG, 9-(R)-(2-Phosphonomethoxypropyl)guanine] |  |  |  |  |  |  | 40 (≈ 132 µM) | >100 | 1.8 (≈ 5.94 µM) | 0.15 (≈ 0.495 µM) | 1.7 (≈ 5.61 µM) |  |
| Nc1ncnc2c1ncn2C[C@H](CF)OCP(=O)(O)O [(R)-FPMPA, reference compound] |  |  | 4.3 ± 0.48 |  |  | 4.7 ± 0.67 | >100 | >100 | 83 (≈ 272 µM) | >100 | 54 (≈ 177 µM) |  |
| C[C@@H](Cn1cnc2c(N)nc(N)nc21)OCP(=O)(O)O [(S)-PMPDAP, 9-(S)-(2-Phosphonomethoxypropyl)-2.6-Diaminopurine] |  |  |  |  |  |  | >100 | >100 | 2.0 (≈ 6.62 µM) | 2.9 (≈ 9.6 µM) | 4.0 (≈ 13.2 µM) |  |
| C[C@H](Cn1cnc2c(N)ncnc21)OCP(=O)(O)O [(R)-PMPA, 9-(R)-(2-Phosphonomethoxypropyl)adenine] | (85%) | 12.9 ± 2.2 | 13.5 ± 3.5 | (100%) | (100%) | >20 | >100 | >100 | 1.7 (≈ 5.92 µM) | 0.99 (≈ 3.45 µM) |  | Mean day of tumor initiation ([1]; 2 mg/kg single dose i.p.): 5.3 ± 1.1 days; percentage of MSV-infected mice still alive at day 20 post infection ([1]; 5 mg/kg single dose i.p.): (20%); percentage of MSV-infected mice without tumor at day 20 post infection ([1]; 5 mg/kg single dose i.p.): (10%); Mean day of tumor initiation ([1]; 5 mg/kg single dose i.p.): 7.11 ± 1.5 days; percentage of MSV-infected mice without tumor at day 20 post infection ([1]; 10 mg/kg single dose i.p.): (75%); percentage of MSV-infected mice still alive at day 20 post infection ([1]; 20 mg/kg single dose i.p.): (100%); percentage of MSV-infected mice without tumor at day 20 post infection ([1]; 20 mg/kg single dose i.p.): (80%); Mean day of animal death ([1]; 20 mg/kg single dose i.p.): >20 days; protection against MSV-induced tumor development (in words) ([1]; single dose of 50 mg/kg i.p.): full protection; concentration markedly inhibitory to retrovirus replication (retrovirus replication; in vitro): 1 to 2 µg/mL |
| C[C@@H](Cn1cnc2c(=O)[nH]c(N)nc21)OCP(=O)(O)O [(S)-PMPG, 9-(S)-(2-Phosphonomethoxypropyl)guanine] |  |  |  |  |  |  | 8 (≈ 26.4 µM) | 45 (≈ 148 µM) | 1.2 (≈ 3.96 µM) | 0.95 (≈ 3.13 µM) | 1.3 (≈ 4.29 µM) |  |
| CC(Cn1cnc2c(=O)[nH]c(N)nc21)OCP(=O)(O)O (stereo not shown) [PMPG] |  |  |  |  |  |  |  |  |  |  |  | antiherpetic effect (in words) (herpes viruses): appeared due to its substantial cytotoxicity |
| Nc1ncnc2c1ncn2C[C@@H](CF)OCP(=O)(O)O [(S)-FPMPA] | (40%) | 7.7 ± 2.4 | 11 ± 2.7 | (100%) | (100%) | >20 | >100 | >100 | 2.7 (≈ 8.85 µM) | 1.5 (≈ 4.91 µM) | 2.6 (≈ 8.52 µM) | percentage of MSV-infected mice still alive at day 20 post infection ([1]; 20 mg/kg single dose i.p.): (55%); percentage of MSV-infected mice without tumor at day 20 post infection ([1]; 20 mg/kg single dose i.p.): (31%); antiretroviral activity in vivo (in words) [1]: no marked antiretroviral activity in vivo |

Reference: US6479673B1, “Antiretroviral enantiomeric nucleotide analogs” (Institute of Organic Chemistry and Biochemistry of the …, priority 1992, dated 2002)
